Assay results taken from PubChem BioAssay AID1963832 (Molecular Pharmacology Branch, DTP, NCI, 2024).

Test system: 885724-159-R-J1-PDC complex spheroid viability
Assay: Anticancer human tumor 885724-159-R-J1-PDC patient-derived pancreatic adenocarcinoma cell line growth inhibition [POLQ]
Conditions: for IC50: curve of first compound; for viability, T/C: stronger effect = lower value; active means viability on the fitted dose curve at most 10% of control; inactive means the rest
Procedure, shortened: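 Growth inhibition in 3D: complex spheroids (tumor PDC, HUVEC, MSC) treated with POLQ inhibitor combinations; where Cmax unknown, highest tested concentration 10 microM, except SN-38 at 1 microM.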
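Further: spheroids exposed to compounds for 7 days.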

CC[C@@]1(O)C(=O)OCc2c1cc1n(c2=O)Cc2cc3c(CN(C)C)c(O)ccc3nc2-1 + Cc1cccc(N(C)C(=O)C2C(O)CCN2c2nc(C)cc(C(F)(F)F)c2C#N)c1
> 100 nM: IC50 (second compound 0.0316 µM) | IC50 (second compound 0.1 µM) | IC50 (second compound 0.316 µM) | IC50 (second compound 1 µM) | IC50 (second compound 3.16 µM) | IC50 (second compound 10 µM)
inactive: viability, T/C (second compound 0.0316 µM, first compound 0.000316 µM) 112% | viability, T/C (second compound 0.0316 µM, first compound 0.001 µM) 103% | viability, T/C (second compound 0.0316 µM, first compound 0.00316 µM) 98% | viability, T/C (second compound 0.0316 µM, first compound 0.01 µM) 93.5% | viability, T/C (second compound 0.0316 µM, first compound 0.0316 µM) 72% | viability, T/C (second compound 0.0316 µM, first compound 0.1 µM) 65.5% | viability, T/C (second compound 0.1 µM, first compound 0.000316 µM) 111% | viability, T/C (second compound 0.1 µM, first compound 0.001 µM) 112% | viability, T/C (second compound 0.1 µM, first compound 0.00316 µM) 93.4% | viability, T/C (second compound 0.1 µM, first compound 0.01 µM) 93% | viability, T/C (second compound 0.1 µM, first compound 0.0316 µM) 73.2% | viability, T/C (second compound 0.1 µM, first compound 0.1 µM) 68.1% | viability, T/C (second compound 0.316 µM, first compound 0.000316 µM) 117% | viability, T/C (second compound 0.316 µM, first compound 0.001 µM) 104% | viability, T/C (second compound 0.316 µM, first compound 0.00316 µM) 103% | viability, T/C (second compound 0.316 µM, first compound 0.01 µM) 100% | viability, T/C (second compound 0.316 µM, first compound 0.0316 µM) 74.9% | viability, T/C (second compound 0.316 µM, first compound 0.1 µM) 62.4% | viability, T/C (second compound 1 µM, first compound 0.000316 µM) 100% | viability, T/C (second compound 1 µM, first compound 0.001 µM) 98% | viability, T/C (second compound 1 µM, first compound 0.00316 µM) 99.5% | viability, T/C (second compound 1 µM, first compound 0.01 µM) 94.2% | viability, T/C (second compound 1 µM, first compound 0.0316 µM) 81.8% | viability, T/C (second compound 1 µM, first compound 0.1 µM) 61.7% | viability, T/C (second compound 3.16 µM, first compound 0.000316 µM) 108% | viability, T/C (second compound 3.16 µM, first compound 0.001 µM) 99.3% | viability, T/C (second compound 3.16 µM, first compound 0.00316 µM) 98.8% | viability, T/C (second compound 3.16 µM, first compound 0.01 µM) 101% | viability, T/C (second compound 3.16 µM, first compound 0.0316 µM) 71.6% | viability, T/C (second compound 3.16 µM, first compound 0.1 µM) 55.3% | viability, T/C (second compound 10 µM, first compound 0.000316 µM) 99.9% | viability, T/C (second compound 10 µM, first compound 0.001 µM) 95.3% | viability, T/C (second compound 10 µM, first compound 0.00316 µM) 90.5% | viability, T/C (second compound 10 µM, first compound 0.01 µM) 87.6% | viability, T/C (second compound 10 µM, first compound 0.0316 µM) 83% | viability, T/C (second compound 10 µM, first compound 0.1 µM) 63.6%
